Test results published in ChEMBL document CHEMBL1151110, “Biosynthesis of staurosporine, 1. 1H- and 13C-NMR assignments” (J Nat Prod, 1988).

Experiment: Acute toxicity in ip dosed mouse
Assay type: organism-based
Details: in vivo

SMILES: CN[C@@H]1C[C@H]2O[C@@](C)([C@@H]1OC)n1c3ccccc3c3c4c(c5c6ccccc6n2c5c31)C(=O)NC4.Cl
- LD50: 6.6 mg/kg
